This note sets out measurements from patent US11236124B2, “Method and composition for hydrolyzing eggshell membrane” (EGGNOVO S.L., priority 2017, dated 2022).

Holding throughout (assay type): biochemical
Assay [1] concerns eggshell membrane. Briefly: Eggshell membrane solubilization with different enzymes and reducing agents (Example 1). Conditions: 10 mg eggshell membrane/ml. On the procedure: A solution for solubilizing eggshell membrane was prepared at a ratio of 10 mg of eggshell membrane/ml of solution. Said solution comprised a denaturing agent, and more specifically a denaturing agent having detergent properties and an amphiphilic nature such as SDS, at a concentration of 0.5-5%. The solution also comprised a reducing agent, for which solutions of the following reducing agents were prepared at a concentration of 100 mM-1 M: sodium sulfite (Na2SO3), sodium hydrosulfite (Na2S2O4), sodium hydroxymethanesulfinate (HOCH2SO2Na), sodium metabisulfite (Na2S2O5), and dithiothreitol (DTT); these solutions were tested successively. Finally, a suitable buffer was added for maintaining the pH depending on the enzyme that was going to be used, having a concentration of 25-50 mM. Once the pH was adjusted with a pH-meter to the optimum pH for each enzyme, the enzyme previously prepared according to the manufacturer's specification at a concentration of 1% was added to the solution, such that the final concentration of the enzyme with respect to the total solution was 0.05-0.5%. The same was performed with each of the enzymes used in the present example.
Once all the components were mixed and homogenized, said mixture was incubated at the maximum temperature of activity of each enzyme. The level of hydrolysis was assessed after 1, 12, and 24 hours of incubation and the results were compared against a control that is performed and only differs from the test solutions by the absence of enzyme.

Assay [2] deals with eggshell membrane. The assay can be described thus: Testing of denaturing agents for eggshell membrane dissolution. Conditions: denaturing agent used for eggshell membrane hydrolysis.
Assay [3] concerns eggshell membrane. The assay can be described thus: Hydrolyzation of different amounts of eggshell membrane with 0.1% papain (Example 3). The settings on record: papain 0.1%, 12 h, 100 mM Na2S2O5, SDS, pH 6.2, 38° C. On the procedure:
Specifically, different solutions with different amounts of eggshell membrane were prepared such that final concentrations with respect to the total solution volume of 20, 30, 40, 50, 70, 100, and 150 mg of eggshell membrane/ml of solution were obtained. The solution contained 100 mM sodium metabisulfite (Na2S2O5), 0.5-5% SDS in 50 mM HEPES buffer adjusted to pH 6.2 with a pH-meter. 1% papain previously activated in a 0.15 M sodium chloride solution was then added such that the concentration of the enzyme with respect to the final volume of the mixture was 0.05-0.5%. Once all the components were mixed and homogenized, said mixture was incubated at 38° C. for 12 h and the results were compared against a control that is performed and only differs from the test solutions by the absence of enzyme. A clear, amber-colored solution was obtained, the color of which intensifies as the membrane concentration increases, in addition to the presence of a precipitate increasing, which indicates a lower level of hydrolysis.

Assay [4] deals with eggshell membrane. Briefly: Eggshell membrane solubilization with papain at different Na2S2O5 concentrations, with or without SDS (Example 2). Conditions: 38° C., 12 h, 10 mg membrane/ml. How it is done: Specifically, a solution for solubilizing 10 mg of eggshell membrane/ml of solution was prepared. Said solution only contained 100 mM sodium metabisulfite (Na2S2O5) (1). Three other similar solutions were prepared with an increasing order of concentration of Na2S2O5, i.e., 5 mM (2), 50 mM (3), and 100 mM (4), but in this case they contained 0.5-5% SDS in 50 mM HEPES buffer adjusted to pH 6.2 with a pH-meter. It was verified that the optimum range of sodium metabisulfite (Na2S2O5) for the present invention is between 50 and 150 mM. Papain previously activated in a 0.15 M sodium chloride solution was added such that the final concentration of the enzyme in the mixture was 0.05-0.5%. Once all the components were mixed and homogenized, said mixture was incubated at 38° C. for 12 h. The level of hydrolysis was evaluated after 12 hours of incubation and the results were compared against a control that is performed and only differs from the test solutions by the absence of enzyme.

The mark [5] stands for this setting: SDS + DTT, 24 h, pH optimum of each enzyme.
The mark [6] stands for this setting: SDS + HOCH2SO2Na, 24 h, pH optimum of each enzyme.
[7] abbreviates: SDS + Na2S2O4, 24 h, pH optimum of each enzyme.
Where [8] appears, read: SDS + Na2S2O5, 24 h, pH optimum of each enzyme.
The mark [9] stands for this setting: SDS + Na2SO3, 24 h, pH optimum of each enzyme.

Consider Pepsin, for which the “% solubilized” value in assay [1] (setting [5]), in assay [1] (setting [6]), in assay [1] (setting [7]), in assay [1] (setting [8]) and in assay [1] (setting [9]) was 0% each time.
Regarding `NC(N)=O` [urea], the “dissolution results with the denaturing agent” value in assay [2] is “without obtaining satisfactory dissolution results”.
With `CCCCCCCCCCCCOS(=O)(=O)[O-].[Na+]` [SDS, sodium lauryl sulfate], the “dissolution results with the denaturing agent” value in assay [2] is recorded as “excellent results”.
On to Ficin, for which the “% solubilized” value was 50% in assay [1] (setting [5]); 0% in assay [1] (setting [6]); 0% in assay [1] (setting [7]); 50% in assay [1] (setting [8]); 0% in assay [1] (setting [9]).
In the case of Bromelain, the “% solubilized” value is given as 100% in assay [1] (SDS + DTT, 1 h, pH 6.2); 100% in assay [1] (SDS + HOCH2SO2Na, 12 h, pH 6.2); 0% in assay [1] (setting [7]); 100% in assay [1] (SDS + Na2S2O5, 1 h, pH 6.2); 0% in assay [1] (setting [9]).

B1: Papain: protease of plant origin with endopeptidase activity from the group of cysteine proteases (protein, UniProt P00784 134-345, looked up)
Papain: IPEYVDWRQKGAVTPVKNQGSCGSCWAFSAVVTIEGIIKIRTGNLNEYSEQELLDCDRRSYGCNGGYPWSALQLVAQYGIHYRNTYPYEGVQRYCRSREKGPYAAKTDGVRQVQPYNEGALLYSIANQPVSVVLEAAGKDFQLYRGGIFVGPCGNKVDHAVAAVGYGPNYILIKNSWGTGWGENGYIRIKRGTGNSYGVCGLYTSSFYPVKN
On to B1, for which the “% of hydrolyzation” value in assay [3] (membrane 20 mg/ml) came out at 100%; in assay [3] (membrane 30 mg/ml), 100%; in assay [3] (membrane 50 mg/ml), 100%; in assay [3] (membrane 70 mg/ml) it was 100%; in assay [3] (membrane 100 mg/ml) it was 90%; in assay [3] (membrane 150 mg/ml), 80%. Besides, the “% solubilized” value in assay [1] (SDS + DTT, 1 h, pH 6.2) stood at 100%; in assay [1] (SDS + HOCH2SO2Na, 12 h, pH 6.2), 100%; in assay [1] (setting [7]), 0%; in assay [1] (SDS + Na2S2O5, 1 h, pH 6.2), 100%; in assay [1] (setting [9]), 0%; in assay [4] ((1) Na2S2O5 100 mM, no SDS) it was 0%. In addition, the “% solubilized” value is recorded as 0% in assay [4] ((2) SDS + Na2S2O5 5 mM, pH 6.2); 70% in assay [4] ((3) SDS + Na2S2O5 50 mM, pH 6.2); 100% in assay [4] ((4) SDS + Na2S2O5 100 mM, pH 6.2).
